Test results published in patent US20230151049A1, “Compounds Useful in HIV Therapy” (priority 2020, published 2023).
Where two headings read alike, the source gives them in different places.

Assay: in vivo
Conditions: for concentration at 1 day / concentration at 7 day / concentration at 14 day / concentration at 21 day / concentration at 28 day / concentration at 35 day / concentration at 42 day / concentration at 49 day / concentration at 56 day / concentration at 63 day / concentration at 70 day / concentration at 77 day / concentration at 84 day: male, Wistar Han, rat, in vivo
Procedure, shortened: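 Three male Wistar Han rats (200-250 g), not fasted, received a single intramuscular gastrocnemius injection of prodrug suspension at 20 mg/kg EFdA equivalent. Tail-vein blood was taken into NaF/Na2EDTA, mixed 1:1 with 100 mM ammonium acetate pH 4, frozen, and analysed by LC-MS/MS.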

SMILES: C#C[C@]1(COP(=O)(N[C@@H](Cc2ccccc2)C(=O)OCCCCCCCCCCCCCCCCC)Oc2ccccc2)O[C@@H](n2cnc3c(N)nc(F)nc32)C[C@@H]1O (single isomer, unassigned) [Example 20A]
- Mean concentration of EFdA (day 77, single IM Example 20A 57 mg/kg): BQL (BQL = below quantification limit, 0.3 ng/mL for Example 20A and 0.1-0.3 ng/mL for EFdA)
- Mean concentration of EFdA (day 84, single IM Example 20A 57 mg/kg): BQL (BQL = below quantification limit, 0.3 ng/mL for Example 20A and 0.1-0.3 ng/mL for EFdA)
- concentration at 1 day (day 1, single IM Example 20A 57 mg/kg, read-out: Mean concentration of Example 20A): 15.3 ng/mL
- concentration at 7 day (day 7, single IM Example 20A 57 mg/kg, read-out: Mean concentration of Example 20A): 14.6 ng/mL
- concentration at 14 day (day 14, single IM Example 20A 57 mg/kg, read-out: Mean concentration of Example 20A): 13.8 ng/mL
- concentration at 21 day (day 21, single IM Example 20A 57 mg/kg, read-out: Mean concentration of Example 20A): 9.76 ng/mL
- concentration at 28 day (day 28, single IM Example 20A 57 mg/kg, read-out: Mean concentration of Example 20A): 8.45 ng/mL
- concentration at 35 day (day 35, single IM Example 20A 57 mg/kg, read-out: Mean concentration of Example 20A): 13.3 ng/mL
- concentration at 42 day (day 42, single IM Example 20A 57 mg/kg, read-out: Mean concentration of Example 20A): 5.27 ng/mL
- concentration at 49 day (day 49, single IM Example 20A 57 mg/kg, read-out: Mean concentration of Example 20A): 4.25 ng/mL
- concentration at 56 day (day 56, single IM Example 20A 57 mg/kg, read-out: Mean concentration of Example 20A): 3.2 ng/mL
- concentration at 63 day (day 63, single IM Example 20A 57 mg/kg, read-out: Mean concentration of Example 20A): 4.84 ng/mL
- concentration at 70 day (day 70, single IM Example 20A 57 mg/kg, read-out: Mean concentration of Example 20A): 2.74 ng/mL
- concentration at 77 day (day 77, single IM Example 20A 57 mg/kg, read-out: Mean concentration of Example 20A): 4 ng/mL
- concentration at 84 day (day 84, single IM Example 20A 57 mg/kg, read-out: Mean concentration of Example 20A): 3.32 ng/mL

SMILES: C#C[C@]1(COP(=O)(N[C@@H](Cc2ccccc2)C(=O)OC(CCCCCCCCCCC)CCCCCCCCCCC)Oc2ccccc2)O[C@@H](n2cnc3c(N)nc(F)nc32)C[C@@H]1O (single isomer, unassigned) [Example 26A]
- Mean concentration of EFdA (day 1, single IM Example 26A 63 mg/kg): BQL (BQL = below quantification limit, 0.3 ng/ml for both)
- Mean concentration of EFdA (day 7, single IM Example 26A 63 mg/kg): BQL (BQL = below quantification limit, 0.3 ng/ml for both)
- Mean concentration of EFdA (day 14, single IM Example 26A 63 mg/kg): BQL (BQL = below quantification limit, 0.3 ng/ml for both)
- Mean concentration of EFdA (day 21, single IM Example 26A 63 mg/kg): BQL (BQL = below quantification limit, 0.3 ng/ml for both)
- Mean concentration of EFdA (day 28, single IM Example 26A 63 mg/kg): BQL (BQL = below quantification limit, 0.3 ng/ml for both)
- Mean concentration of EFdA (day 35, single IM Example 26A 63 mg/kg): BQL (BQL = below quantification limit, 0.3 ng/ml for both)
- Mean concentration of EFdA (day 42, single IM Example 26A 63 mg/kg): BQL (BQL = below quantification limit, 0.3 ng/ml for both)
- Mean concentration of EFdA (day 49, single IM Example 26A 63 mg/kg): BQL (BQL = below quantification limit, 0.3 ng/ml for both)
- Mean concentration of EFdA (day 56, single IM Example 26A 63 mg/kg): BQL (BQL = below quantification limit, 0.3 ng/ml for both)
- Mean concentration of EFdA (day 63, single IM Example 26A 63 mg/kg): BQL (BQL = below quantification limit, 0.3 ng/ml for both)
- Mean concentration of EFdA (day 70, single IM Example 26A 63 mg/kg): BQL (BQL = below quantification limit, 0.3 ng/ml for both)
- Mean concentration of EFdA (day 77, single IM Example 26A 63 mg/kg): BQL (BQL = below quantification limit, 0.3 ng/ml for both)
- Mean concentration of EFdA (day 84, single IM Example 26A 63 mg/kg): BQL (BQL = below quantification limit, 0.3 ng/ml for both)
- concentration at 1 day (day 1, single IM 63 mg/kg, read-out: Mean concentration of Example 26A): 72.7 ng/mL
- concentration at 7 day (day 7, single IM 63 mg/kg, read-out: Mean concentration of Example 26A): 37.6 ng/mL
- concentration at 14 day (day 14, single IM 63 mg/kg, read-out: Mean concentration of Example 26A): 33.8 ng/mL
- concentration at 21 day (day 21, single IM 63 mg/kg, read-out: Mean concentration of Example 26A): 22.9 ng/mL
- concentration at 28 day (day 28, single IM 63 mg/kg, read-out: Mean concentration of Example 26A): 18.5 ng/mL
- concentration at 35 day (day 35, single IM 63 mg/kg, read-out: Mean concentration of Example 26A): 14.4 ng/mL
- concentration at 42 day (day 42, single IM 63 mg/kg, read-out: Mean concentration of Example 26A): 11.1 ng/mL
- concentration at 49 day (day 49, single IM 63 mg/kg, read-out: Mean concentration of Example 26A): 9.62 ng/mL
- concentration at 56 day (day 56, single IM 63 mg/kg, read-out: Mean concentration of Example 26A): 9.8 ng/mL
- concentration at 63 day (day 63, single IM 63 mg/kg, read-out: Mean concentration of Example 26A): 11.5 ng/mL
- concentration at 70 day (day 70, single IM 63 mg/kg, read-out: Mean concentration of Example 26A): 9.95 ng/mL
- concentration at 77 day (day 77, single IM 63 mg/kg, read-out: Mean concentration of Example 26A): 9.69 ng/mL
- concentration at 84 day (day 84, single IM 63 mg/kg, read-out: Mean concentration of Example 26A): 7.43 ng/mL

SMILES: C#C[C@]1(COP(=O)(N[C@@H](C)C(=O)OC(CCCCCCCCCC)CCCCCCCCCC)Oc2ccccc2)O[C@@H](n2cnc3c(N)nc(F)nc32)C[C@@H]1O (single isomer, unassigned) [Example 37A]
- Mean concentration of EFdA (day 21, single IM Example 37A 56 mg/kg): BQL (BQL = below quantification limit, 0.3 ng/ml for both)
- Mean concentration of EFdA (day 28, single IM Example 37A 56 mg/kg): BQL (BQL = below quantification limit, 0.3 ng/ml for both)
- Mean concentration of EFdA (day 35, single IM Example 37A 56 mg/kg): BQL (BQL = below quantification limit, 0.3 ng/ml for both)
- Mean concentration of EFdA (day 42, single IM Example 37A 56 mg/kg): BQL (BQL = below quantification limit, 0.3 ng/ml for both)
- Mean concentration of EFdA (day 49, single IM Example 37A 56 mg/kg): BQL (BQL = below quantification limit, 0.3 ng/ml for both)
- Mean concentration of EFdA (day 56, single IM Example 37A 56 mg/kg): BQL (BQL = below quantification limit, 0.3 ng/ml for both)
- Mean concentration of EFdA (day 63, single IM Example 37A 56 mg/kg): BQL (BQL = below quantification limit, 0.3 ng/ml for both)
- Mean concentration of EFdA (day 70, single IM Example 37A 56 mg/kg): BQL (BQL = below quantification limit, 0.3 ng/ml for both)
- Mean concentration of EFdA (day 77, single IM Example 37A 56 mg/kg): BQL (BQL = below quantification limit, 0.3 ng/ml for both)
- Mean concentration of EFdA (day 84, single IM Example 37A 56 mg/kg): BQL (BQL = below quantification limit, 0.3 ng/ml for both)
- concentration at 1 day (day 1, single IM Example 37A 56 mg/kg, read-out: Mean concentration of Example 37A): 17.9 ng/mL
- concentration at 7 day (day 7, single IM Example 37A 56 mg/kg, read-out: Mean concentration of Example 37A): 3.58 ng/mL
- concentration at 14 day (day 14, single IM Example 37A 56 mg/kg, read-out: Mean concentration of Example 37A): 3.8 ng/mL
- concentration at 21 day (day 21, single IM Example 37A 56 mg/kg, read-out: Mean concentration of Example 37A): 5.16 ng/mL
- concentration at 28 day (day 28, single IM Example 37A 56 mg/kg, read-out: Mean concentration of Example 37A): 4.16 ng/mL
- concentration at 35 day (day 35, single IM Example 37A 56 mg/kg, read-out: Mean concentration of Example 37A): 4.95 ng/mL
- concentration at 42 day (day 42, single IM Example 37A 56 mg/kg, read-out: Mean concentration of Example 37A): 5.29 ng/mL
- concentration at 49 day (day 49, single IM Example 37A 56 mg/kg, read-out: Mean concentration of Example 37A): 4.89 ng/mL
- concentration at 56 day (day 56, single IM Example 37A 56 mg/kg, read-out: Mean concentration of Example 37A): 4.94 ng/mL
- concentration at 63 day (day 63, single IM Example 37A 56 mg/kg, read-out: Mean concentration of Example 37A): 4.46 ng/mL
- concentration at 70 day (day 70, single IM Example 37A 56 mg/kg, read-out: Mean concentration of Example 37A): 3.78 ng/mL
- concentration at 77 day (day 77, single IM Example 37A 56 mg/kg, read-out: Mean concentration of Example 37A): 3.46 ng/mL
- concentration at 84 day (day 84, single IM Example 37A 56 mg/kg, read-out: Mean concentration of Example 37A): 3.32 ng/mL
